Assay results reported in patent US20100009852A1, “Plant growth regulator” (priority 2008, published 2010).
“And” between values parts separate entries of the source, which are not always exact repeats. Equal entries are not always repeated.

Key:
[1] = system: maize (Zea mays—variety Oldham); assay: Root growth promotion: maize germination in a soil free test system; assay type: in vivo; conditions: for Fresh weight of harvested roots, Mean of 4 replicates / Fresh weight of harvested roots, single replicate: 13 days after sowing, Blank WP mean 317; for Fresh weight of harvested roots, single replicate: roots of 10 seeds per container
Protocol: 8 cm round filter papers were placed in 9.5 cm square clear plastic tissue culture containers (ICN Biomedicals, Inc). The paper in each of 4 containers were wetted with 2 ml of tap water containing 2500, 1250 or 625 ppm of cyprosulfamide provided as a 20% wettable powder formulation (WP). 4 further containers were wetted with tap water containing blank WP formulation (i.e. all components except cyprosulfamide). Into each Petri dish 10 seeds of maize (Zea mays—variety Oldham) were evenly spread and the lids put in place. The Petri dishes were placed in glasshouse set to 24° C.±2° C. day and 17° C.±2° C. night. High-pressure mercury lamps (400 W) were used to augment daylight during cloudy conditions. As required, small volumes of water were added to the Petri dishes as necessary to keep the filter paper moist. After 13 days the roots from all seeds per container were harvested by cutting as close to the base as possible. The fresh weight of roots was measured immediately.

[2] = system: maize varieties (Cecilia and Abraxas); assay: Shoot growth regulation: glasshouse pot trial, plant height of 2 maize varieties; assay type: in vivo; conditions: for Mean plant height per pot, Mean of 8 replicates / Mean plant height per pot, single replicate: 25 days after sowing
Protocol: Three cyprosulfamide treatment methods (1 to 3) were used in a trial designed to investigate effects on shoot development. Treatment method 1 was a seed treatment. For this, fifty seeds each of two maize varieties ([…] and Abraxas) were weighed and placed into each of 50 ml glass screw cap bottles. To one of these bottles sufficient wettable powder formulation of cyprosulfamide (20% formulation) was added to provide 1 g of cyprosulfamide per 1000 g of seed. To the second bottle the same amount of a blank formulation (same components but lacking cyprosulfamide) was added. To each bottle 10 ml of deionised water was added the caps fitted. The bottles were then placed on a shaker for 20 minutes so that the seeds were evenly coated with the formulation. For methods 2 and 3, 240 peat pots (7 cm diameter) were filled to within 3 cm of the top with steam sterilised sandy-loam soil (20% sand, 57% silt, 23% clay, pH 6.8 and 1.4% organic matter). In addition, 120 Petri dishes (10 cm diameter) were filled (1 cm depth) with the same soil. The 20% wettable powder formulation of cyprosulfamide was dispersed in de-ionised water to produce the required concentration (ppm). 120 pots (Treatment 2) and the all 120 Petri dishes (Treatment 3) were placed on “feed-belt” of a track-sprayer. The spray solution of cyprosulfamide was placed into the spray vessel and applied to the target pots/dishes at a spray volume of 300 l/ha via a flat fan nozzle. This provided a dose rate equivalent to 1000 g of cyprosulfamide per hectare soil surface. For treatment method 1, five treated maize seed were sown onto 8 replicate untreated pots and covered with untreated soil. For treatment method 2, five untreated seeds were sown onto 8 replicate treated pots and covered with untreated soil. For treatment method 3, five untreated seeds were sown onto 8 replicate untreated pots and covered using the treated soil from the Petri dishes. Control (Treatment 4) had also untreated seeds on untreated soil. The placement of cyprosulfamide as a result of these treatment methods is shown in FIG. 1 All the pots were watered and placed in a glasshouse set to 24° C.±2° C. day and 17° C.±2° C. night. The relative humidity was normally above 60%. High-pressure mercury lamps (400 W) were used to augment daylight during cloudy conditions. Pots were watered as required. 25 days after sowing the height of each plant was measured from soil surface to tip of tallest leaf which was held up against a ruler.

[3] = variety Abraxas, treatment 1 = seed treatment, 1 g per 1000 g seed, untreated mean 36.0
[4] = variety Abraxas, treatment 2 = soil below seed, 1000 g per hectare, untreated mean 36.0
[5] = variety Abraxas, treatment 3 = soil above seed, 1000 g per hectare, untreated mean 36.0
[6] = variety Cecilia, treatment 1 = seed treatment, 1 g per 1000 g seed, untreated mean 55.3
[7] = variety Cecilia, treatment 2 = soil below seed, 1000 g per hectare, untreated mean 55.3
[8] = variety Cecilia, treatment 3 = soil above seed, 1000 g per hectare, untreated mean 55.3

COc1ccccc1C(=O)NS(=O)(=O)c1ccc(C(=O)NC2CC2)cc1 [cyprosulfamide] was tested, and the “Fresh weight of harvested roots, Mean of 4 replicates” value (“Fresh weight … of 4 replicates” below) ([1]; WP + 625 ppm a.i.) was 620 mg, the “Fresh weight of harvested roots, single replicate” value (“Fresh weight … single replicate” below) ([1]; WP + 625 ppm a.i.) was 587 mg and 579 mg and 547 mg and 767 mg and the “Fresh weight … of 4 replicates” value ([1]; WP + 1250 ppm a.i.) was 838 mg. The “Fresh weight … single replicate” value ([1]; WP + 1250 ppm a.i.) was 700 mg and 717 mg and 846 mg and 1087 mg, the “Fresh weight … of 4 replicates” value ([1]; WP + 2500 ppm a.i.) was 778 mg and the “Fresh weight … single replicate” value ([1]; WP + 2500 ppm a.i.) was 918 mg and 1211 mg and 634 mg and 350 mg. The “root development of germinating maize seed” value ([1]; in the presence of cyprosulfamide (625-2500 ppm) versus blank WP) was “significantly enhanced”, the “effect on plant height (statistical analysis)” value ([2]; all treatments (1 to 3) versus untreated, in Cecilia and Abraxas) was “significantly reduced plant height” and the “Mean plant height per pot, Mean of 8 replicates” value (shortened to “Mean plant height per pot, Mean”) [2, 3] was 26.3 cm. For the same compound, the “Mean plant height per pot, single replicate” value [2, 3] was 28.2 cm and 20.8 cm and 31.6 cm and 22.6 cm and 25.2 cm and 22.2 cm and 28.8 cm and 30.6 cm, the “Mean plant height per pot, Mean” value [2, 4] was 33.4 cm and the “Mean plant height per pot, single replicate” value [2, 4] was 34.2 cm and 34.5 cm and 34.4 cm and 33.4 cm and 32.2 cm and 33.6 cm and 30.5 cm and 34.6 cm. For the same compound, the “Mean plant height per pot, Mean” value [2, 5] was 30.4 cm, the “Mean plant height per pot, single replicate” value [2, 5] was 25.2 cm and 26.6 cm and 29.6 cm and 32.2 cm (2×) and 31.4 cm and 32.8 cm and 33.0 cm and the “Mean plant height per pot, Mean” value [2, 6] was 41.2 cm. For the same compound, the “Mean plant height per pot, single replicate” value [2, 6] was 34.3 cm and 40.7 cm and 50.0 cm and 38.3 cm and 39.3 cm and 44.0 cm and 41.0 cm and 41.7 cm, the “Mean plant height per pot, Mean” value [2, 7] was 44.4 cm and the “Mean plant height per pot, single replicate” value [2, 7] was 46.0 cm (2×) and 50.0 cm and 48.2 cm and 42.8 cm and 41.7 cm and 40.6 cm and 40.3 cm. For the same compound, the “Mean plant height per pot, Mean” value [2, 8] was 47.8 cm and the “Mean plant height per pot, single replicate” value [2, 8] was 43.0 cm and 54.0 cm and 47.6 cm and 47.0 cm and 55.5 cm and 58.0 cm and 36.8 cm and 40.8 cm.
